20 compounds from ChEMBL document CHEMBL4130586, “Antiprotozoal Sesquiterpene Lactones and Other Constituents from Tarchonanthus camphoratus and Schkuhria pinnata” (J Nat Prod, 2018) can be followed below.

pIC50: −log10 of the molar value.

The test system of data set [1] is Trypanosoma brucei rhodesiense. The data set can be described thus: Antitrypanosomal activity against Trypanosoma brucei rhodesiense STIB 900 bloodstream forms after 72 hrs by alamar blue staining based fluorescence assay. The data set is classed as functional, organism-based. To be noted: STIB 900, 72 h.
A further data set has as its system L6. As to the kind of experiment: Cytotoxicity against rat L6 cells after 72 hrs by alamar blue staining based fluorescence assay. The data set is classed as cell-based. To be noted: L6, 72 h.
The nature of data set [2]: Selectivity index, ratio of IC50 for rat L6 cells to IC50 for Trypanosoma brucei rhodesiense STIB 900 bloodstream forms. The data set is classed as toxicity. Conditions: read-out: Ratio IC50.

Regarding `C=C1C(=O)O[C@@H]2/C=C(/C)[C@@H]3C/C=C(/C[C@@H](OC(=O)/C(=C/CO)CO)[C@@H]12)C[C@@](O)(C(C)C)C(=O)O3`, the pIC50 in data set [1] was 6.05; in the data set on L6, 5.42. Besides, the selectivity ratio in data set [2] was found to be 4.1.

With `C=C1C(=O)O[C@@H]2/C=C(/C)[C@@H](OC(C)=O)C/C=C(\C)C[C@@H](OC(=O)c3ccoc3)[C@@H]12`, the pIC50 in data set [1] is 7.00; in the data set on L6, 5.68. Further, the selectivity ratio in data set [2] stood at 20.5.

Take `C=C1C(=O)O[C@@H]2/C=C(/C)[C@@H](O)C[C@H]3O[C@]3(C)C[C@@H](OC(=O)/C(=C/COC(=O)C(O)C(C)C)CO)[C@@H]12` (stereo not given in full): the pIC50 in data set [1] was 6.04; with L6, 4.84. The selectivity ratio in data set [2] stood at 15.8.

Consider `C=C1C(=O)O[C@@H]2/C=C(/C)[C@@H](OC(C)=O)C[C@H]3O[C@]3(C)C[C@@H](OC(=O)/C(=C/CO)CO)[C@@H]12`, for which the pIC50 is 6.04 in data set [1] and 4.84 in the data set on L6. Moreover, the selectivity ratio in data set [2] was found to be 15.8.

In the case of `C=C1C(=O)O[C@@H]2/C=C(/C)[C@@H](OC(C)=O)C/C=C(\C)C[C@@H](OC(=O)C3=CC(O)OC3)[C@@H]12` (stereo not given in full), the pIC50 in data set [1] is 6.46; in the data set with L6, 5.39. For the same compound, the selectivity ratio in data set [2] is 11.5.

For the compound `C=C1C(=O)O[C@@H]2/C=C(/C)[C@@H](OC(C)=O)C/C=C(\C)C[C@@H](OC(=O)/C(=C\CO)CO)[C@@H]12`, the pIC50 was 5.77 in data set [1] and 4.26 in the data set with L6. The selectivity ratio in data set [2] turned out to be 31.1.

Regarding `C=C1C(=O)O[C@@H]2/C=C(\C)[C@@H](O)C/C=C(\C)C[C@@H](OC(=O)/C(C)=C/CO)[C@@H]12`, the pIC50 in data set [1] is 5.27; in the data set on L6, 4.29. The selectivity ratio in data set [2] was found to be 9.6.

Regarding `C=C1C(=O)O[C@@H]2/C=C(/C)[C@@H](OC(C)=O)C/C=C(\C)C[C@@H](OC(=O)/C(=C/CO)CO)[C@@H]12`, the pIC50 in data set [1] is 5.96; in the data set on L6 it was 5.11. Besides, the selectivity ratio in data set [2] was found to be 6.9.

On to `C=C1C(=O)O[C@H]2[C@H]1[C@H](OC(=O)/C(=C/CO)CO)CC(=C)[C@@H]1CC(=O)C(C)[C@H]21` (stereo not given in full), for which the values for the pIC50 (in data set [1]; with L6) were 6.22 and 4.91, respectively. Also, the selectivity ratio in data set [2] turned out to be 19.2.

With `C=C1C[C@@H](OC(=O)/C(=C/CO)CO)[C@H]2C(=C)C(=O)O[C@@H]2[C@H]2C(C)=C[C@@H](O)[C@@H]12`, the pIC50 was 5.14 in data set [1] and 4.37 in the data set with L6. For the same compound, the selectivity ratio in data set [2] was determined as 5.9.

`C=C1C(=O)O[C@@H]2/C=C(/C)[C@@H](OC(=O)C(O)C(C)C)C/C=C(\C)C[C@@H](OC(=O)/C(=C/CO)CO)[C@@H]12` (stereo not given in full): the pIC50 in data set [1] is 6.09; in the data set with L6, 4.96. Besides, the selectivity ratio in data set [2] was 13.4.

For `C=C1C(=O)O[C@@H]2/C=C(/C)[C@@H](OC(C)=O)C/C=C(\C)C[C@@H](OC(=O)/C(C)=C/CO)[C@@H]12`, the results for the pIC50 (in data set [1]; in the data set on L6) were 5.77 and 5.10, respectively. The selectivity ratio in data set [2] was found to be 4.6.

On to `COc1cc(CCCO)cc(O)c1OC`, for which the pIC50 in data set [1] was 5.01; with L6 it was 3.83. Besides, the selectivity ratio in data set [2] was found to be 15.2.

Take `C=C1C(=O)O[C@@H]2/C=C(\C)[C@@H](O)C/C=C(\C)C[C@@H](OC(=O)/C(=C/COC(=O)C(O)C(C)C)CO)[C@@H]12` (stereo not given in full): the pIC50 is 5.59 in data set [1] and 4.47 with L6. For the same compound, the selectivity ratio in data set [2] amounted to 13.

In the case of `C=C1C(=O)O[C@@H]2/C=C(\C)[C@@H](O)C/C=C(\C)C[C@@H](OC(=O)/C(=C/COC(=O)C(O)C(C)CC)CO)[C@@H]12` (stereo not given in full), the figures for the pIC50 (in data set [1]; in the data set with L6) were 5.40 and 4.37, respectively. Besides, the selectivity ratio in data set [2] was 10.5.

Consider `C=C1C(=O)O[C@@H]2/C=C(/C)[C@@H](OC(=O)C(O)C(C)C)C/C=C(\C)C[C@@H](OC(=O)c3ccoc3)[C@@H]12` (stereo not given in full), for which the results for the negative-log IC50 (pIC50) (in data set [1]; in the data set on L6) were 6.89 and 5.41, respectively. The selectivity ratio in data set [2] was found to be 29.7.

Consider `C=C1C(=O)O[C@H]2[C@H]1[C@H](OC(=O)/C(=C/COC(=O)C(O)C(C)C)CO)C[C@]1(C)[C@@H]2[C@H](C)C(=O)C[C@H]1O` (stereo not given in full), for which the pIC50 was 5.57 in data set [1] and 4.40 with L6. Besides, the selectivity ratio in data set [2] is 14.6.

As to `C=C1C(=O)O[C@@H]2C3O[C@]3(C)CC/C=C(\C)CC[C@@H]12` (stereo not given in full), the figures for the pIC50 (in data set [1]; with L6) were 6.41 and 5.14, respectively. Besides, the selectivity ratio in data set [2] was found to be 18.6.

Consider `C=C1C(=O)O[C@@H]2/C=C(\C)CC/C=C(\C)C[C@@H](OC(=O)/C(=C/CO)CO)[C@@H]12`, for which the pIC50 in data set [1] was 5.85 to 5.92; in the data set with L6, 4.81. The selectivity ratio in data set [2] came to 11.1.

As to `COc1ccc(-c2cc(=O)c3c(O)c(OC)c(O)cc3o2)cc1` [PECTOLINARIGENIN], the pIC50 in data set [1] was 5.21; with L6, 4.69. In addition, in data set [2], the selectivity ratio was determined as 3.3.
